Earlier results as cited in patent US20170096549A1, “MULTIVALENT CATION FORMULATIONS OF PARTIALLY DESULFATED HEPARINS” (Cantex Pharmaceuticals, Inc., priority 2014, published 2017).
Where two headings read alike, the source gives them in different places.

Columns and labels:
Xa = Xa (Homo sapiens, UniProt P00742)
IIa = IIa (Homo sapiens, UniProt P00734+P01008)
anti-thrombin III = anti-thrombin III (Homo sapiens, UniProt P01008)
Sequence of anti-thrombin III (P01008 33-464, species assumed): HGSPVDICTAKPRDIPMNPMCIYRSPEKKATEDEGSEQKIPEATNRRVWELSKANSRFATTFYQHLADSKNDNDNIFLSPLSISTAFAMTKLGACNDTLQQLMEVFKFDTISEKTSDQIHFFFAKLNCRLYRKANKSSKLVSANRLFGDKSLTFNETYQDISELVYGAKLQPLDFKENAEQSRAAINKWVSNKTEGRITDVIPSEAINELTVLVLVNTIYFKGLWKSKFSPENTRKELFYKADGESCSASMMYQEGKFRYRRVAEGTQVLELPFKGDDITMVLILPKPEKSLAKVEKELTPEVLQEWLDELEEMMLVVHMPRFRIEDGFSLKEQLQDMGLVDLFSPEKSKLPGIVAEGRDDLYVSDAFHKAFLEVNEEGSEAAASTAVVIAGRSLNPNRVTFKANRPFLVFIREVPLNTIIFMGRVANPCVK

Sequence of Xa (P01008 33-464 partner): as the sequence (P01008 33-464, species assumed) above
Sequence of Xa (P00742 235-488 limits assumed): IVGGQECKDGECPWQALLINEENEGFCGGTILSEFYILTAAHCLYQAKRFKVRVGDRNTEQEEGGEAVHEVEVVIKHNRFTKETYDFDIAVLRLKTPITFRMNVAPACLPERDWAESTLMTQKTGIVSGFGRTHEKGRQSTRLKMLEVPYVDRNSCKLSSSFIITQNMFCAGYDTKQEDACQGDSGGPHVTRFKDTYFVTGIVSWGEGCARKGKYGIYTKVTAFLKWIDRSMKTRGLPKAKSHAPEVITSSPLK

anti-Xa activity (Xa): 165-190 U/mg
anti-IIa activity (IIa): 165-190 U/mg
Kd for anti-thrombin III (anti-thrombin III): ~22 µg/mL
Kd (anti-thrombin III; listed as heparin): 1560 nM
Kd (anti-thrombin III; listed as unfractionated heparin): ~1560 nM
Substance: Unfractionated heparin
anti-coagulant activity in the USP anti-coagulant assay (anti-coagulant activity): 165-190 U/mg
